Data as given in US12083084B2, “Method for enhancing energy production and metabolism in cells” (REPLICON HEALTH OY, priority 2013, dated 2024).
Marks after values point to notes of the source that are not given here.

What was measured:
[1] = Blood pressure (hypertension) in study subjects; format: in vivo, human
Experimental: FIG. 12 depicts that hypertension was measured in two study subjects out of eight (subject 4 and 5). Subject 5 was the only person with clearly elevated blood pressure. (For other study subjects 1-3 and 6-8 blood pressures were at normal level.) Subject 5 blood pressure was first observed without any treatment for 6 days (from 20 of Jan. to 26 of Jan. 2013). After that subject 5 received twice a day 4 mg/kg of DGA mixed to water for 10 days. […] Subject 4 received 1×4 mg/k/day of DGA for 3 weeks.
FIG. 12a: Hypertension, subject 5 (averages of three measurements. DGA dosing started on 26th of January and ended on 3rd of February. Dose 2×4 mg/kg/day).
FIG. 12b: Hypertension, subject 4 (averages of three measurements. Subject 4 received 1×4 mg/kg/day of DGA for 3 weeks).

[2] = Hepatic free glycerol after 3 week feeding; format: in vivo, rat
Text: From the above experiment altogether 12 rats were chosen from 0.1 g/kg/day DGAcs group (N=6) and zero control (N=6) for a measurement of free glycerol from liver samples. Liver samples contained also blood entering the liver from other tissues, thus on top of hepatic tissues the samples reflect also the metabolic situation in other tissues of the body than just the liver.
(§1) In this experiment nutrition intake, except of course for DGAcs, was controlled to be exactly the same during the experimental day, and three day before the experiment. For AA rats, that are used to alcohol but didn't receive any alcohol in 3 day before the experiment, catabolic redox-activity in the cytosol was controlled by giving rats ethanol (equaling 1.2 per mille blood alcohol concentration, which represents only mild alcohol intoxication to the AA rats). The rate of ethanol oxidation remained the same in all groups.
(§2) Experimental session started at 8:00 to 9:00 am. To diminish possible pain during the experiments, all animals were injected subcutaneously with buprenorphine (0.01 mg/kg) a few minutes before the blood samples. During the experimental session no difference in other metabolic activity, e.g. rate of ethanol oxidation, between the control and treatment group was detected from blood samples. Immediately after the last blood sample, the animals were anesthetized with pentobarbital (40 mg/kg IP, 1% [wt/vol] in saline). Thereafter (5-10 minutes), liver pieces were quickly (within 2-4 seconds) excised and freeze-clamped. Liver samples were stored at 718 C until glycerol determination. […] The resulting supernatants were used for free glycerol measurement with an enzymatic end point commercial assay kit (Boehringer-Mannheim, R-Biopharm, Darmstadt, Germany) according to the manufacturer's protocol except that the assays were modified for use with small volumes of supernatant using a 96-well microplate reader (Labsystems Multiskan RS, Helsinki, Finland). […]

[3] = Extended 8 week administration and 2 week control period for S4 (Example 2.2); format: in vivo, human; details: for AST/ALT / S-Bil / S-Uraat / fS-Fe / fS-Trigly: fasting blood
Experimental: For Subject 4 (S4) in Example 2.1, the 4 day test period was prolonged by 8 weeks with reduced, only once a day 5 mg/kg/day administration before going to bed. Additionally in order to have an understanding that the results in the 8 week test were due to the administration of the Innovation, an additional negative control measurement without DGAcs after 2 weeks and 2 days was made (+2 days due to alleviating doses see below). The idea was to see, if the beneficial effects seen in 4 day treatment prevailed in longer term (positive control).

[4] = Rate of ethanol oxidation in rats; format: in vivo, rat; details: AA rats given ethanol (1.2 per mille), not statistically significant
Text: as §1
as §2, with “samples.” for “samples. Immediately after the last blood sample, the animals were anesthetized with pentobarbital (40 mg/kg IP, 1% [wt/vol] in saline). Thereafter (5-10 minutes), liver pieces were quickly (within 2-4 seconds) excised and freeze-clamped. Liver samples were stored at 718 C until glycerol determination.”

[5] = tested on: Mitochondria of Primary Rat Cortical Neurons; test: Mitochondrial Ca2+-uptake in rat cortical neurons (fluorescent imaging); format: cell-based; details: 50 ug/ml for 24 h, N = 3
Experimental: Fluorescent imaging. Imaging experiments were performed at 7 DIV. The cells were loaded with fluorescent dyes (fura4F, fura-ff and rhodamine 123) in cell culture medium at 37° C. 1 h, 5 μM for each dye. Then cells were washed with Mg^2+-free Locke's buffer containing 1.3 mM Ca^2+, moved to the microscope stage, and imaging was performed at room temperature. […] For delayed calcium deregulation experiments a lower affinity Ca^2+-indicator FuraFF (Kd 5.5 μM) was used to avoid a saturation of the signal.
In this study a zero control and one DGAcs group of primary rat cortical neurons was cultivated normally without DGAcs until 6 DIV, and then the DGAcs group was treated with 50 μg/ml DGAcs for 24 hours. After that culture medium was replaced by Mg^2+-free Locke's buffer containing 50 μg/ml DGAcs and imaging experiments were performed at room temperature at 7 DIV.
50 μM NMDA in the presence of 10 μM glycin in Mg^2+-free buffer was used to stimulate the cells.
For complete mitochondrial depolarization and release of Ca^2+ accumulated in mitochondria 2 μM protonophore FCCP was used in the presence of NMDA-receptors inhibitor MK801 (2 μM).

[6] = rats, given with ethanol; cited from earlier work
[7] = S4, +2 weeks follow up after stopping DGAcs (negative control), change from previous observation (+8 weeks)
[8] = S4, +2 weeks follow up after stopping DGAcs (negative control)
[9] = S4, +8 weeks 5 mg/kg once a day (positive control), change from previous observation (4 day)
[10] = S4, +8 weeks 5 mg/kg once a day (positive control)

In the case of `O=C(O)[C@H](O)CO` [DGA, D-glyceric acid], the blood pressure ([1]; subject 4, 1×4 mg/kg/day for 3 weeks) is reported as “declined also somewhat”, the “diastolic blood pressure after treatment” value ([1]; subject 5, clearly elevated blood pressure (102 or 104 before), twice a day for 10 days) is reported as roughly 90 and the “systolic blood pressure after treatment” value ([1]; subject 5, clearly elevated blood pressure (roughly 180 before), twice a day for 10 days) is reported as roughly 160.

For `O.O.O=C([O-])[C@H](O)CO.O=C([O-])[C@H](O)CO.[Ca+2]` [DGAcs, D-glyceric acid, calcium salt dehydrate], the “glycerol levels increased compared to the control” value ([2]; 0.1 g/kg group) was 59%, the “increase in the concentration of free glycerol compared to the control samples” value ([2]; 0.1 g/kg group) was “roughly 0.17 g/kg” and the “Free glycerol concentration (hepatic, including extracellular matrix)” value ([2]; 0.1 g/kg per day in diet for 3 weeks, AA rats, n = 6, no acute dose) was 4.88 +/− 1.21 (6) * Micromoles Per Gram Wet Weight Tissue. The “S-Asat, change” value [3, 7] was 24.1%, the “S-Bil, change” value [3, 7] was 41.7% and the “S-Uraat, change” value [3, 7] was 19.4%. The “S-alat, change” value [3, 7] was −35.1%, the “fS-Fe, change” value [3, 7] was −3.2% and the “fS-Trigly, change” value [3, 7] was −17.8%. It also gave an AST/ALT [3, 8] of 1.44, a S-Bil [3, 8] of 10.2 and a S-Uraat [3, 8] of 295. For the same molecule, the fS-Fe [3, 8] was 15.1, the fS-Trigly [3, 8] was 1.11 and the “S-Asat, change” value [3, 9] was 31.8%. The “S-Bil, change” value [3, 9] was −25.8%, the “S-Uraat, change” value [3, 9] was 0.4% and the “S-alat, change” value [3, 9] was 85.0%. For the same molecule, the “fS-Fe, change” value [3, 9] was −22.8%, the “fS-Trigly, change” value [3, 9] was −22.0% and the AST/ALT [3, 10] was 0.78. It also gave a S-Bil [3, 10] of 7.2, a S-Uraat [3, 10] of 247 and a fS-Fe [3, 10] of 15.6. For the same molecule, the fS-Trigly [3, 10] was 1.35, the “time without dose until withdrawal symptoms started” value ([3]; S4, after 8 weeks of 5 mg/kg/day) was 36 h and the “withdrawal symptoms after stopping administration” value ([3]; S4, after 8 weeks of 5 mg/kg/day, bad feeling inside the head, dizziness, uneasiness) was “very clear but not severe”. The “rate of ethanol oxidation, maximum acceleration compared to control” value [4] was roughly 3.6%, the “Average Ca release, FCCP” value ([5]; 2 μM FCCP + MK801 (complete mitochondrial depolarization)) was 0.475 *) and the “Average Ca release, peak NMDA” value ([5]; 50 μM NMDA) was 0.219. The “Average Ca release, baseline Ca” value [5] was 0.070 and the metabolism of alcohol [6] was “expedited the metabolism of alcohol”.
